Results reported in ChEMBL document CHEMBL1143479, “Carbonic anhydrase inhibitors: inhibition of the tumor-associated isozymes IX and XII with a library of aromatic and heteroaromatic sulfonamides” (Bioorg Med Chem Lett, 2005).

Columns and labels:
[1] = biological target: Carbonic anhydrase 9 (Homo sapiens, UniProt Q16790)
[2] = biological target: Carbonic anhydrase 12 (Homo sapiens, UniProt O43570)
[3] = biological target: Carbonic anhydrase 1 (Homo sapiens, UniProt P00915)
[4] = biological target: Carbonic anhydrase 2 (Homo sapiens, UniProt P00918)

Chain of Carbonic anhydrase 12 (O43570 whole entry): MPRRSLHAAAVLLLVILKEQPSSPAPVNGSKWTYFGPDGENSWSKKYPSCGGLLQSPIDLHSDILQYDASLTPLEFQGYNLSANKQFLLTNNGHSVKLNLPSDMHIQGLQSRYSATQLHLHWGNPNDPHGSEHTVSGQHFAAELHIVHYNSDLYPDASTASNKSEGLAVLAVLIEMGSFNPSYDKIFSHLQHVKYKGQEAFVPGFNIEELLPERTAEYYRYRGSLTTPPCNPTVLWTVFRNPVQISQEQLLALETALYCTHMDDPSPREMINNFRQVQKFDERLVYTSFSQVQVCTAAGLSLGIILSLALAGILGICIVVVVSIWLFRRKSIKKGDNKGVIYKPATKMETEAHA
Chain of Carbonic anhydrase 1 (P00915 whole entry): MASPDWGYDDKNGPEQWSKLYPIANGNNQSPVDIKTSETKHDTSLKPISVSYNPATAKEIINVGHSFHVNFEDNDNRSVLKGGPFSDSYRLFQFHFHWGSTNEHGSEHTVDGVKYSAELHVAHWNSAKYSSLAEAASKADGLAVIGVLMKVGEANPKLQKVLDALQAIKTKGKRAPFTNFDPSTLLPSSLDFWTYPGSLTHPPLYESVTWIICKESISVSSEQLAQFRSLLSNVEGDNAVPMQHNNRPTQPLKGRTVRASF

Structure (SMILES) | Ki [1] [nM] | Ki [2] [nM] | Ki [3] [nM] | Ki [4] [nM]
CCCC(=O)Nc1ccc(S(N)(=O)=O)cc1 | 83 |  |  | 
CC(=O)Nc1ccc(S(N)(=O)=O)cc1 |  | 49 |  | 
CC(C)(C)C(=O)Nc1ccc(S(N)(=O)=O)cc1 | 136 |  |  | 
NS(=O)(=O)c1cccc(NC(=O)Nc2ccccc2)c1 | 14 | 10 | 1500 | 
CC(C)C(=O)Nc1ccc(S(N)(=O)=O)cc1 | 139 |  |  | 
CC(=O)Nc1ccc(Nc2ccc(S(N)(=O)=O)cc2)cc1 | 37 |  |  | 
NS(=O)(=O)c1ccc(CCNC(=S)Nc2ccccc2)cc1 | 21 | 24 | 50 | 53
CCCCC(=O)Nc1ccc(S(N)(=O)=O)cc1 | 79 |  |  | 
NS(=O)(=O)c1ccc(CCNC(=S)Nc2ccc(S(N)(=O)=O)cc2)cc1 |  | 79 | 37 | 4
